Source: patent publication US11603350B2, “Compound, composition, cured object, optically anisotropic body, and reflective film” (FUJIFILM Corporation, priority 2016, dated 2023)

Assays:
Format in all cases: physicochemical
[1] = Solubility measurement in ethyl methyl ketone; conditions: concentration in ethyl methyl ketone solution where the compound was completely dissolved
Protocol: Ethyl methyl ketone was added dropwise to each of the compounds, and a concentration (% by mass) of the compound in the obtained ethyl methyl ketone solution in a case where the compound was completely dissolved in the solution was measured as “solubility”. It is intended that a higher numerical value of solubility indicates excellent solubility in ethyl methyl ketone.

[2] = Evaluation of light resistance (residual rate after ultraviolet irradiation); conditions: 5 mg in acetonitrile (20 ml), 1 cm quartz cell, ultraviolet light 3 J/cm^2; residual rate by liquid chromatography
Protocol: Each (5 mg) of the compounds was dissolved in acetonitrile (20 ml), sealed in a 1 cm quartz cell, and the quartz cell was irradiated with ultraviolet light under a condition of 3 J/cm^2 using EXECURE 3000-W manufactured by HOYA-SCHOTT CORPORATION, so that a residual rate of each compound was measured. Amounts (masses) of each compound before and after light irradiation were calculated using liquid chromatography. In Table 1, “A” represents a residual rate of equal to or greater than 80%, “B” represents a residual rate of equal to or greater than 50% and less than 80%, and “C” represents a residual rate of less than 50%.
The residual rate is a ratio of an amount (mass) of a compound after light irradiation to an amount (mass) of the compound before light irradiation, and can be calculated by the following expression. Residual rate (%)=(amount of compound after light irradiation/amount of compound before light irradiation)×100

[3] = Δn (refractive index anisotropy) measurement, wedge-shaped liquid crystal cell; conditions: at 550 nm and 30° C.; for compounds liable to crystallize, estimated from extrapolated values of mixtures with other liquid crystals
Excerpt: As a method of measuring the Δn, a method using a wedge-shaped liquid crystal cell described on page 202 of the Liquid Crystal Handbook (edited by Liquid Crystal Handbook Editing Committee, published by Maruzen Co., Ltd.) is generally used. In a case of a compound which is liable to crystallize, it is also possible to carry out evaluation with a mixture thereof with other liquid crystals and to estimate Δn from extrapolated values thereof.
The Δn corresponds to a measured value at a wavelength of 550 nm at 30° C.
Δn of each of the compounds was measured by a method using a wedge-shaped liquid crystal cell described on page 202 of the Liquid Crystal Handbook (edited by Liquid Crystal Handbook Editing Committee, published by Maruzen Co., Ltd.). In a case of the compound which is liable to crystallize, evaluation with a mixture thereof with other liquid crystals was carried out and Δn was estimated from extrapolated values thereof. The values in the table represent Δn's at 550 nm and 30° C.

SMILES | Solubility [1] [% by mass] | Δn [3] | Light resistance evaluation [2]
C=CC(=O)OCCCCOc1ccc(C#Cc2ccc(NC(=O)c3ccc(OCCCCOC(=O)C=C)cc3)cc2)cc1 [Compound a-1] | 5 | 0.289 | A (a residual rate of equal to or greater than 80%)
C=CC(=O)OCCCCOc1ccc(C(=O)Nc2ccc(C#Cc3ccc4nc(SCCCCOC(=O)C=C)sc4c3)cc2C(F)(F)F)cc1 [Compound a-7] | 22 | 0.304 | A (a residual rate of equal to or greater than 80%)
C=CC(=O)OCCCCOc1ccc(C#Cc2ccc(NC(=O)c3ccc(OCCCCOC(=O)C=C)cc3)cc2C)cc1 [Compound a-3] | 19 | 0.282 | A (a residual rate of equal to or greater than 80%)
C=CC(=O)OCCCCOc1ccc(C#Cc2ccc(C(=O)Nc3ccc(C#Cc4ccc(OCCCCOC(=O)C=C)cc4)cc3C(F)(F)F)cc2)cc1 [Compound a-8] | 22 | 0.370 | A (a residual rate of equal to or greater than 80%)
C=CC(=O)OCCCCOc1ccc(C#Cc2ccc(NC(=O)c3ccc(OCCCCOC(=O)C=C)cc3)c(OC)c2)cc1 [Compound a-4] | 20 | 0.301 | A (a residual rate of equal to or greater than 80%)
C=CC(=O)OCCCCOc1ccc(C(=O)Oc2ccc(C#Cc3ccc(CCCCCCC)cc3)cc2)cc1 [Compound b-1, reference compound] | – | 0.220 | C (a residual rate of less than 50%)

The next lines start with results.

Solubility [1] [% by mass] | Δn [3] | SMILES | Light resistance evaluation [2]
23 | 0.280 | C=CC(=O)OCCCCOc1ccc(C#Cc2ccc(NC(=O)c3ccc(OCCCCOC(=O)C=C)cc3)c(C)c2)cc1 [Compound a-2] | A (a residual rate of equal to or greater than 80%)
11 | 0.278 | C=CC(=O)OCCCCOc1ccc(C#Cc2ccc(NC(=O)c3ccc(OCCCCOC(=O)C=C)cc3)c(F)c2)cc1 [Compound a-5] | A (a residual rate of equal to or greater than 80%)
38 | 0.287 | C=CC(=O)OCCCCOc1ccc(C#Cc2ccc(NC(=O)c3ccc(OCCCCOC(=O)C=C)cc3)c(C(F)(F)F)c2)cc1 [Compound a-6] | A (a residual rate of equal to or greater than 80%)
